Reference: US9994590B2, “Substituted [1,2,4]triazolo[1,5-a]pyrazines as phosphodiesterase inhibitors” (Sunovion Pharamaceuticals Inc., priority 2012, dated 2018)

Biological target: recombinant human PDE-10 enzyme (human PDE-10A) (Homo sapiens (Human), UniProt Q9Y233)
Test: human PDE-10 inhibition assay (Molecular Devices IMAP PDE Fluorescence Polarization, enzyme assay IC50)
Format: biochemical
Settings: Fluorescein-labeled cAMP/cGMP substrate, 40-minute incubation at 37° C.
Method: In one embodiment, the compounds provided herein were assayed for their ability to inhibit human PDE-10A. In one embodiment, the activities of the compounds were determined using the Molecular Devices IMAP PDE Fluorescence Polarization assay using recombinant human PDE-10 enzyme expressed in a baculoviral system. Briefly, 10 μL of a compound (0.2 nM-20 μM) was added to either a 96-well half area black plate or a 384-well black plate along with 10 μL of Fluorescein-labeled cAMP/cGMP substrate as per manufacturer's instructions and 10 μL of PDE enzyme (activity 0.1 U). Following a 40-minute incubation at 37° C., 60 μL of IMAP binding reagent was added. The plate was then read on a Perkin Elmer Victor (480-535 nm). The data was analyzed using Prism Software (GraphPad Inc, San Diego, Calif.).

Chain of recombinant human PDE-10 enzyme (human PDE-10A) (Q9Y233 whole entry): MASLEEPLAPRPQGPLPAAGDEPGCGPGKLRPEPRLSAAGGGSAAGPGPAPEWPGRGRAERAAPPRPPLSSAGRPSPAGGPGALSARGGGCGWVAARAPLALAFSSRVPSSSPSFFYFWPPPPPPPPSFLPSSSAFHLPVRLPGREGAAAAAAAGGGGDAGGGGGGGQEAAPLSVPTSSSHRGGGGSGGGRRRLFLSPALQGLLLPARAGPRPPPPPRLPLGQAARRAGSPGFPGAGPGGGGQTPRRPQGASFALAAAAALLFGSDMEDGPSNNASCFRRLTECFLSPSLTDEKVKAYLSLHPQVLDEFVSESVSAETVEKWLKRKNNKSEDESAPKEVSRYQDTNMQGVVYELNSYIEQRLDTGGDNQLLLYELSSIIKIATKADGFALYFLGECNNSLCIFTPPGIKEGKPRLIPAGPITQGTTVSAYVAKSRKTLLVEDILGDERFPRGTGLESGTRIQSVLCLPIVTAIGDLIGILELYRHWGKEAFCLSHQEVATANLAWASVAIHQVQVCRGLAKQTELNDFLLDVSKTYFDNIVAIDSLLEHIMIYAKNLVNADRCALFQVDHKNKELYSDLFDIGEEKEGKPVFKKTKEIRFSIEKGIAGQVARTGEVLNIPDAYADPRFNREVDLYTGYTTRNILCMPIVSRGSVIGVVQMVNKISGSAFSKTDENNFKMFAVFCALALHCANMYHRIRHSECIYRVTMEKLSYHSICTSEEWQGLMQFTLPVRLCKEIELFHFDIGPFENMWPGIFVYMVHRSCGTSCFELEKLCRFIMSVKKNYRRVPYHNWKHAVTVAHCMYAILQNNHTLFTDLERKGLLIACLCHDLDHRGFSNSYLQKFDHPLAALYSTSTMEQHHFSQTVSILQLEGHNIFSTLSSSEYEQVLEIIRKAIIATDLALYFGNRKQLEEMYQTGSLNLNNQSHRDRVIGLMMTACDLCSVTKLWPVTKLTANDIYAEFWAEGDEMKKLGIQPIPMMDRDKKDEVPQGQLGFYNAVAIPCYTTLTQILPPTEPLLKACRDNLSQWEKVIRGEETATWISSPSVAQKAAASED

| Compound | IC50 [nM] |
| --- | --- |
| Clc1cccn2cc(C3CC3c3cn4cccc(Cl)c4n3)nc12 (stereo not drawn) [Compound 11] | > 500 |
| Cc1ccn2cc(C3CC3c3nc4c(C)ncc(C)n4n3)nc2c1 (stereo not drawn) [Compound 12, 5,8-Dimethyl-2-(2-(7-methylimidazo[1,2-a]pyridin-2-yl)cyclopropyl)-[1,2,4]triazolo[1,5-a]pyrazine] | > 500 |
| CCOc1ccn2c(C)c(C3CC3c3nc4c(C)ncc(C)n4n3)nc2c1 (stereo not drawn) [Compound 14] | > 500 |
| COc1ccn2cc(C3CC3c3nc4c(C)ncc(C)n4n3)nc2c1 (stereo not drawn) [Compound 16] | > 500 |
| Cc1cc2nc(C3CC3c3nc4c(C)ncc(C)n4n3)cn2cc1F (stereo not drawn) [Compound 18] | > 500 |
| Fc1ccn2cc(C3CCC3c3cn4cccc(Cl)c4n3)nc2c1 (stereo not drawn) [Compound 24, 8-Chloro-2-(2-(7-fluoroimidazo[1,2-a]pyridin-2-yl)cyclobutyl)imidazo[1,2-a]pyridine] | > 500 |
| Cn1c(C2CCC2c2nc3c4cccnc4ccc3n2C)nc2c3cccnc3ccc21 (stereo not drawn) [Compound 25, 1,2-Bis(3-methyl-3H-imidazo[4,5-f]quinolin-2-yl)cyclobutane] | > 500 |
| Cc1ncc(C)n2nc([C@H]3C[C@@H]3c3nc4c5cccnc5ccc4n3C)nc12 [Compound 28] | 100 to 500 |

Next, values leading:

| IC50 [nM] | Compound |
| --- | --- |
| 100 to 500 | COc1ccn2c(C)c(C3CC3c3nc4c(C)ncc(C)n4n3)nc2c1 (stereo not drawn) [Compound 13] |
| 10 to 100 | COc1cccn2c(C)c(C3CC3c3nc4c(C)ncc(C)n4n3)nc12 (stereo not drawn) [Compound 15] |
| 10 to 100 | CCOc1cccn2cc(C3CC3c3nc4c(C)ncc(C)n4n3)nc12 (stereo not drawn) [Compound 17] |
| 10 to 100 | Cc1ncc(C)n2nc(C3CC3c3nc(-c4ccccc4)cn3C)nc12 (stereo not drawn) [Compound 19, 5,8-Dimethyl-2-(2-(1-methyl-4-phenyl-1H-imidazol-2-yl)cyclopropyl)-[1,2,4]triazolo[1,5-a]pyrazine] |
| 100 to 500 | Cn1c(C2CC2c2ccc3ccccc3n2)nc2c3cccnc3ccc21 (stereo not drawn) [Compound 20, 3-Methyl-2-(2-(quinolin-2-yl)cyclopropyl)-3H-imidazo[4,5-f]quinoline] |
| 100 to 500 | Clc1cccn2cc(C3CCC3c3cn4cccc(Cl)c4n3)nc12 (stereo not drawn) [Compound 23, 1,2-Bis(8-chloroimidazo[1,2-a]pyridin-2-yl)cyclobutane] |
| ≤ 10 | Cc1ncc(C)n2nc([C@@H]3C[C@H]3c3nc4c5cccnc5ccc4n3C)nc12 [Compound 29] |
